From ChEMBL document CHEMBL3046161, “Synthesis of potential antitubercular and antimicrobial s-triazine-based scaffolds via Suzuki cross-coupling reaction” (2013)
Values after ≈ are worked out from the molar mass of the structure shown.

Legend:
Type in all cases: functional
[1] = tested on: Mycobacterium tuberculosis; test: Antimycobacterial activity against Mycobacterium tuberculosis H37Rv assessed as growth inhibition at MIC measured within 10 days by BACTEC MGIT method
[2] = tested on: Mycobacterium tuberculosis; test: Antimycobacterial activity against Mycobacterium tuberculosis H37Rv assessed as growth inhibition measured within 10 days by BACTEC MGIT method; details: 240 h
[3] = tested on: Shigella flexneri; test: Antibacterial activity against Shigella flexneri MTCC 1457 assessed as growth inhibition at 3.12 to 50 ug/mL after 24 hr by agar disk diffusion method
[4] = tested on: Salmonella typhi; test: Antibacterial activity against Salmonella enterica subsp. enterica serovar Typhi MTCC 733 assessed as growth inhibition after 24 hr by agar streak dilution method; details: MTCC 733, 24 h
[5] = tested on: Aspergillus niger; test: Antifungal activity against Aspergillus niger MTCC 282 assessed as growth inhibition at 3.12 to 50 ug/mL after 24 hr by agar disk diffusion method
[6] = tested on: Mycobacterium tuberculosis; test: Antimycobacterial activity against Mycobacterium tuberculosis H37Rv assessed as growth inhibition after 12 to 28 days by Lowenstein and Jensen agar dilution method
[7] = tested on: Klebsiella pneumoniae; test: Antibacterial activity against Klebsiella pneumoniae MTCC 109 assessed as growth inhibition at 3.12 to 50 ug/mL after 24 hr by agar disk diffusion method
[8] = tested on: Bacillus cereus; test: Antibacterial activity against Bacillus cereus MTCC 430 assessed as growth inhibition after 24 hr by agar streak dilution method; details: MTCC 430, 24 h
[9] = tested on: Aspergillus niger; test: Antifungal activity against Aspergillus niger MTCC 282 assessed as growth inhibition after 48 hr by agar streak dilution method; details: MTCC 282, 48 h
[10] = tested on: Proteus vulgaris; test: Antibacterial activity against Proteus vulgaris MTCC 1771 assessed as growth inhibition at 3.12 to 50 ug/mL after 24 hr by agar disk diffusion method
[11] = tested on: Pseudomonas aeruginosa; test: Antibacterial activity against Pseudomonas aeruginosa MTCC 741 assessed as growth inhibition at 3.12 to 50 ug/mL after 24 hr by agar disk diffusion method
[12] = tested on: Salmonella typhi; test: Antibacterial activity against Salmonella enterica subsp. enterica serovar Typhi MTCC 733 assessed as growth inhibition at 3.12 to 50 ug/mL after 24 hr by agar disk diffusion method
[13] = tested on: Aspergillus fumigatus; test: Antifungal activity against Aspergillus fumigatus MTCC 343 assessed as growth inhibition at 3.12 to 50 ug/mL after 24 hr by agar disk diffusion method
[14] = tested on: Candida albicans; test: Antifungal activity against Candida albicans MTCC 183 assessed as growth inhibition after 48 hr by agar streak dilution method; details: MTCC 183, 48 h
[15] = tested on: Candida albicans; test: Antifungal activity against Candida albicans MTCC 183 assessed as growth inhibition at 3.12 to 50 ug/mL after 24 hr by agar disk diffusion method
[16] = tested on: Proteus vulgaris; test: Antibacterial activity against Proteus vulgaris MTCC 1771 assessed as growth inhibition after 24 hr by agar streak dilution method; details: MTCC 1771, 24 h
[17] = tested on: Escherichia coli; test: Antibacterial activity against Escherichia coli MTCC 739 assessed as growth inhibition at 3.12 to 50 ug/mL after 24 hr by agar disk diffusion method
[18] = tested on: Klebsiella pneumoniae; test: Antibacterial activity against Klebsiella pneumoniae MTCC 109 assessed as growth inhibition after 24 hr by agar streak dilution method; details: MTCC 109, 24 h
[19] = tested on: Shigella flexneri; test: Antibacterial activity against Shigella flexneri MTCC 1457 assessed as growth inhibition after 24 hr by agar streak dilution method; details: MTCC 1457, 24 h
[20] = tested on: Mycobacterium tuberculosis; test: Antimycobacterial activity against Mycobacterium tuberculosis H37Rv assessed as growth inhibition at MIC after 12 to 28 days by Lowenstein and Jensen agar dilution method
[21] = tested on: Bacillus cereus; test: Antibacterial activity against Bacillus cereus MTCC 430 assessed as growth inhibition at 3.12 to 50 ug/mL after 24 hr by agar disk diffusion method
[22] = tested on: Escherichia coli; test: Antibacterial activity against Escherichia coli MTCC 739 assessed as growth inhibition after 24 hr by agar streak dilution method; details: MTCC 739, 24 h
[23] = tested on: Staphylococcus aureus; test: Antibacterial activity against Staphylococcus aureus MTCC 96 assessed as growth inhibition after 24 hr by agar streak dilution method; details: MTCC 96, 24 h
[24] = tested on: Staphylococcus aureus; test: Antibacterial activity against Staphylococcus aureus MTCC 96 assessed as growth inhibition at 3.12 to 50 ug/mL after 24 hr by agar disk diffusion method
[25] = tested on: Aspergillus clavatus; test: Antifungal activity against Aspergillus clavatus MTCC 1323 assessed as growth inhibition after 48 hr by agar streak dilution method; details: MTCC 1323, 48 h
[26] = tested on: Pseudomonas aeruginosa; test: Antibacterial activity against Pseudomonas aeruginosa MTCC 741 assessed as growth inhibition after 24 hr by agar streak dilution method; details: MTCC 741, 24 h
[27] = tested on: Aspergillus fumigatus; test: Antifungal activity against Aspergillus fumigatus MTCC 343 assessed as growth inhibition after 48 hr by agar streak dilution method; details: MTCC 343, 48 h
[28] = tested on: Aspergillus clavatus; test: Antifungal activity against Aspergillus clavatus MTCC 1323 assessed as growth inhibition at 3.12 to 50 ug/mL after 24 hr by agar disk diffusion method

Compound | growth inhibition (GI) [1] [%] | MIC [2] [mg/L] | inhibition zone (IZ) [3] [mm] | MIC [4] [mg/L] | inhibition zone (IZ) [5] [mm] | MIC [6] [mg/L] | inhibition zone (IZ) [7] [mm] | MIC [8] [mg/L] | MIC [9] [mg/L] | inhibition zone (IZ) [10] [mm] | inhibition zone (IZ) [11] [mm] | inhibition zone (IZ) [12] [mm] | inhibition zone (IZ) [13] [mm] | MIC [14] [mg/L] | inhibition zone (IZ) [15] [mm] | MIC [16] [mg/L] | inhibition zone (IZ) [17] [mm] | MIC [18] [mg/L] | MIC [19] [mg/L] | growth inhibition (GI) [20] [%] | further results
CO[C@H]1/C=C/O[C@@]2(C)Oc3c(C)c(O)c4c(O)c(c(/C=N/N5CCN(C)CC5)c(O)c4c3C2=O)NC(=O)/C(C)=C\C=C\[C@H](C)[C@H](O)[C@@H](C)[C@@H](O)[C@@H](C)[C@H](OC(C)=O)[C@@H]1C [RIFAMPIN] | 99 | 0.25 (≈ 0.304 µM) | – | – | – | – | – | – | – | – | – | – | – | – | – | – | – | – | – | – | –
CC1CC(C)CN(c2nc(-c3ccc(NCC(=O)Nc4ccc(Br)cc4)cc3)nc(N3CC(C)CC(C)C3)n2)C1 (centres undefined) | 99 | 6.25 (≈ 10.3 µM) | 22 | 25 (≈ 41.2 µM) | 12 | 3.12 (≈ 5.14 µM) | 24 | 6.25 (≈ 10.3 µM) | 50 (≈ 82.4 µM) | 13 | 27 | 20 | 23 | 50 (≈ 82.4 µM) | 13 | 50 (≈ 82.4 µM) | 19 | 25 (≈ 41.2 µM) | 12.5 (≈ 20.6 µM) | 99 | inhibition zone (IZ) [21]: 27 mm; MIC [22]: 25 mg/L (≈ 41.2 µM); MIC [23]: 3.12 mg/L (≈ 5.14 µM); inhibition zone (IZ) [24]: 24 mm; MIC [25]: 50 mg/L (≈ 82.4 µM); MIC [26]: 12.5 mg/L (≈ 20.6 µM); MIC [27]: 50 mg/L (≈ 82.4 µM); inhibition zone (IZ) [28]: 25 mm
CC[C@@H](CO)NCCN[C@@H](CC)CO [ETHAMBUTOL] | 99 | 3.12 (≈ 15.3 µM) | – | – | – | – | – | – | – | – | – | – | – | – | – | – | – | – | – | – | –
NNC(=O)c1ccncc1 [ISONIAZID] | 99 | 0.2 (≈ 1.46 µM) | – | – | – | – | – | – | – | – | – | – | – | – | – | – | – | – | – | – | –
Cc1ccc2nc(NC(=O)CNc3ccc(-c4nc(N5CC(C)CC(C)C5)nc(N5CC(C)CC(C)C5)n4)cc3)sc2c1 (centres undefined) | – | > 6.25 | 12 | 50 (≈ 83.5 µM) | <10 | 250 (≈ 417 µM) | 16 | 50 (≈ 83.5 µM) | 50 (≈ 83.5 µM) | 20 | 15 | <10 | <10 | 50 (≈ 83.5 µM) | 13 | 50 (≈ 83.5 µM) | 16 | 50 (≈ 83.5 µM) | 50 (≈ 83.5 µM) | 97 | inhibition zone (IZ) [21]: 19 mm; MIC [22]: 50 mg/L (≈ 83.5 µM); MIC [23]: 50 mg/L (≈ 83.5 µM); inhibition zone (IZ) [24]: 15 mm; MIC [25]: > 50 mg/L; MIC [26]: 50 mg/L (≈ 83.5 µM); MIC [27]: > 50 mg/L; inhibition zone (IZ) [28]: <10 mm
CC1CC(C)CN(c2nc(-c3ccc(NCC(=O)Nc4nc5ccc([N+](=O)[O-])cc5s4)cc3)nc(N3CC(C)CC(C)C3)n2)C1 (centres undefined) | – | > 6.25 | 21 | 50 (≈ 79.4 µM) | 23 | 50 (≈ 79.4 µM) | 18 | 12.5 (≈ 19.8 µM) | 12.5 (≈ 19.8 µM) | 19 | 18 | 19 | 22 | 50 (≈ 79.4 µM) | 16 | 50 (≈ 79.4 µM) | 18 | 50 (≈ 79.4 µM) | 50 (≈ 79.4 µM) | 98 | inhibition zone (IZ) [21]: 26 mm; MIC [22]: 50 mg/L (≈ 79.4 µM); MIC [23]: 12.5 mg/L (≈ 19.8 µM); inhibition zone (IZ) [24]: 22 mm; MIC [25]: 25 mg/L (≈ 39.7 µM); MIC [26]: 50 mg/L (≈ 79.4 µM); MIC [27]: 50 mg/L (≈ 79.4 µM); inhibition zone (IZ) [28]: 28 mm
COc1ccc2nc(NC(=O)CNc3ccc(-c4nc(N5CC(C)CC(C)C5)nc(N5CC(C)CC(C)C5)n4)cc3)sc2c1 (centres undefined) | – | > 6.25 | 25 | 50 (≈ 81.3 µM) | 19 | 12.5 (≈ 20.3 µM) | 23 | 12.5 (≈ 20.3 µM) | 25 (≈ 40.7 µM) | 27 | 20 | 20 | <10 | 12.5 (≈ 20.3 µM) | 25 | 6.25 (≈ 10.2 µM) | 20 | 50 (≈ 81.3 µM) | 12.5 (≈ 20.3 µM) | 98 | inhibition zone (IZ) [21]: 25 mm; MIC [22]: 25 mg/L (≈ 40.7 µM); MIC [23]: 1.56 mg/L (≈ 2.54 µM); inhibition zone (IZ) [24]: 26 mm; MIC [25]: 50 mg/L (≈ 81.3 µM); MIC [26]: 50 mg/L (≈ 81.3 µM); MIC [27]: > 50 mg/L; inhibition zone (IZ) [28]: 23 mm
CC1CC(C)CN(c2nc(-c3ccc(NCC(=O)Nc4ccc([N+](=O)[O-])cc4)cc3)nc(N3CC(C)CC(C)C3)n2)C1 (centres undefined) | – | > 6.25 | 17 | 50 (≈ 87.3 µM) | 18 | 100 (≈ 175 µM) | 12 | 50 (≈ 87.3 µM) | 50 (≈ 87.3 µM) | 13 | 20 | 15 | 18 | 50 (≈ 87.3 µM) | 13 | 50 (≈ 87.3 µM) | 13 | 50 (≈ 87.3 µM) | 50 (≈ 87.3 µM) | 94 | inhibition zone (IZ) [21]: 16 mm; MIC [22]: 50 mg/L (≈ 87.3 µM); MIC [23]: 12.5 mg/L (≈ 21.8 µM); inhibition zone (IZ) [24]: 20 mm; MIC [25]: 50 mg/L (≈ 87.3 µM); MIC [26]: 50 mg/L (≈ 87.3 µM); MIC [27]: 50 mg/L (≈ 87.3 µM); inhibition zone (IZ) [28]: 24 mm
NC(=O)c1cnccn1 [PYRAZINAMIDE] | 99 | 6.25 (≈ 50.8 µM) | – | – | – | – | – | – | – | – | – | – | – | – | – | – | – | – | – | – | –
